Reference: the NIST ThermoML archive (doi:10.1016/j.jct.2014.09.004)
Numbers after ± are expanded uncertainties.

Conditions: Liquid; pulse heating

Structure (SMILES) | Critical pressure [kPa] | Critical temperature [K]
c1cc2c3c(cccc3c1)CC2 [acenaphthene] | 3700 ± 110 | 820 ± 8
c1ccc2cc3ccccc3cc2c1 [anthracene] | 3170 ± 100 | 894 ± 9
c1ccc2c(c1)Cc1ccccc1-2 [fluorene] | 3180 ± 100 | 836 ± 8
c1ccc2c(c1)ccc1ccccc12 [phenanthrene] | 3250 ± 100 | 893 ± 9
c1cc2ccc3cccc4ccc(c1)c2c34 [pyrene] | 3030 ± 90 | 974 ± 10
